Data taken from PMC2790607, “Finding of the Low Molecular Weight Inhibitors of Resuscitation Promoting Factor Enzymatic and Resuscitation Activity” (PLoS ONE, 2009).
In brackets after ≈: the same amount, converted by molar mass. Read-outs that look alike come from different tables or passages of the source.

What was measured:
Rpf Sm = target: T1, Rpf Sm (Micrococcus luteus, UniProt O86308); experiment: Muralytic activity of Rpf, 4-MUF-3-NAG hydrolysis; assay type: biochemical, M. luteus
T1 construct: His-tag (inferred from the pET19b vector and the Ni2+-chelation purification); made in house; host or cells: E. coli HSM174 (DE3)
T1 sequence (O86308 42-134): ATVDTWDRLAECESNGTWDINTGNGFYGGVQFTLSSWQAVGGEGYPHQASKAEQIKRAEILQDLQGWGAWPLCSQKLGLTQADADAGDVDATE
Experimental: The truncated form of M.luteus Rpf (RpfSm) was used for the analysis. The truncated protein contained conserved Rpf domain and additional 20 amino acids of the gene product, corresponding to the following amino acid sequence:
To determine a muralytic activity of the recombinant Rpfs', 4-methylumbelliferyl-β-D-N, N′, N″-triacetylchitotrioside (4-MUF-3-NAG) (“Sigma”, Germany) was applied. […] A number of experiments were performed in the presence of NPT compounds, in concentration range of 0.5–10 µg/ml. After 3 hours of incubation at 37°C, 2 µl of 10 M NaOH was added and the samples were frozen and kept at −20°C. […] The intensity of fluorescence was detected by the RF-5301PC fluorimeter (“SHIMADZU”, Japan) using excitation wavelength of 364 nm and a read-out of 448 nm.

Micrococcus luteus = experiment: microbe, parasite or virus in culture; assay type: cell-based; conditions: for MIC: Micrococcus luteus, lowest concentration which suppresses growth, determined during 24 hours, NI = no inhibition was observed; for effect on M. luteus growth: NB liquid medium
[1] = tested on: M. tuberculosis "non-culturable" cells; assay type: cell-based, Mycobacterium tuberculosis; conditions: for MPN, logarithmic transformation of cell concentration (cells/ml): inhibitor 10 µg/ml; for effect on resuscitation of M. tuberculosis "non-culturable" cells: 10 µg/ml, MPN assay, versus untreated resuscitating cells
ΔDUFRpf B = ΔDUFRpf B (Mycobacterium tuberculosis, UniProt P9WG29); assay type: binding, M. tuberculosis
ΔDUFRpf B, sequence (P9WG29 whole entry, looked up, stated change not applied): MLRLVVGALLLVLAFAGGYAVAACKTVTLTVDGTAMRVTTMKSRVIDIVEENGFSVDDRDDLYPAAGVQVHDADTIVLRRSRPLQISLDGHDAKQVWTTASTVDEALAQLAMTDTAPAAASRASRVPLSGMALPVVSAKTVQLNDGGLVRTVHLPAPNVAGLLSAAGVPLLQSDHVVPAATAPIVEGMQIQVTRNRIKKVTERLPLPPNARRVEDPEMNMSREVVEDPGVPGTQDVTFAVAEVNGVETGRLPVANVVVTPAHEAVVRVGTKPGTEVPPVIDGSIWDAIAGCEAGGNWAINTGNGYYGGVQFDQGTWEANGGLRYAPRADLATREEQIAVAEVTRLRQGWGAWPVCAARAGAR

M. smegmatis = assay type: cell-based, Mycobacterium smegmatis; conditions: at 0.1–1 µg/ml (not shown)
[2] = tested on: M. smegmatis "non-culturable" cells; assay type: cell-based, Mycobacterium smegmatis; conditions: MPN assay
[3] = pH 6.0, 3 hours at 37°C, NI = no inhibition was observed, read-out: 4-MUF-3-NAG hydrolysis IC50, Rpf Sm (converted)

Row | Structure (SMILES) | IC50 (Rpf Sm) | MIC (Micrococcus luteus) | MPN, logarithmic transformation of cell concentration (cells/ml) ([1]; time 0 days) | MPN, logarithmic transformation of cell concentration (cells/ml) ([1]; time 14 days) | MPN, logarithmic transformation of cell concentration (cells/ml) ([1]; time 19 days) | MPN, logarithmic transformation of cell concentration (cells/ml) ([1]; time 21 days) | MPN, logarithmic transformation of cell concentration (cells/ml) ([1]; time 23 days) | MPN, logarithmic transformation of cell concentration (cells/ml) ([1]; time 27 days) | MPN, logarithmic transformation of cell concentration (cells/ml) ([1]; time 30 days) | MPN, logarithmic transformation of cell concentration (cells/ml) ([1]; time 33 days) | MPN, logarithmic transformation of cell concentration (cells/ml) ([1]; time 36 days) | MPN, logarithmic transformation of cell concentration (cells/ml) ([1]; time 40 days) | melting point | IC50 (Rpf Sm; [3]) | effect on resuscitation of M. tuberculosis "non-culturable" cells [1] | also measured
1 | N#CSc1ccc(C#N)cc1[N+](=O)[O-] [V, 3-Nitro-4-thiocyanobenzonitryl] | 25.3 µM | 1 to 5 µg/mL (≈ 4.87 to 24.4 µM) | 3.48 | 3.48 | 3.48 | 3.48 | 3.48 | 3.86 | 4.30 | 5.66 | 5.66 | 5.66 | 143 to 145 °C |  |  | 
2 | CC(=O)c1ccc(SC#N)c([N+](=O)[O-])c1 [VI, 4-Acetyl-2-nitrophenyl thiocyanate] | 9.9 µM | 5 µg/mL (≈ 22.5 µM) | 3.48 | 3.48 | 3.48 | 3.48 | 3.56 | 3.96 | 4.66 | 5.38 | 5.97 | 6.18 | 96 to 98 °C |  |  | 
3 | [I-].[K+] [iodide, reference compound] |  |  |  |  |  |  |  |  |  |  |  |  |  |  |  | accessible fraction of ΔDUFRpfB tryptophanes (fa) (ΔDUFRpf B; modified Stern-Volmer equation, excitation 280 nm, emission 340 nm): ~40%
4 | N#CSc1ccc(C(F)(F)F)cc1[N+](=O)[O-] [IV, 2-Nitro-4-(trifluoromethyl)-phenylthiocyanate] |  | 5 µg/mL (≈ 20.1 µM) | 3.48 | 3.48 | 3.56 | 3.96 | 4.36 | 5.38 | 5.66 | 5.66 | 5.66 | 5.66 | 78 to 81 °C | 21.4 µM | increased time which need for developing of visible growth in the MPN assay and decreased the final values of MPN | growth of active cells of M. smegmatis (M. smegmatis): did not inhibit growth; concentrations active in suppressing resuscitation of M. smegmatis [2]: 0.1 to 1 µg/mL
5 | COC(=O)c1ccc(SC#N)c([N+](=O)[O-])c1 [IX, 3-Nitro-4-thiocyanatobenzoic acid methyl ester] | 23.5 µM | 5 to 10 µg/mL (≈ 21 to 42 µM) | 3.48 | 3.48 | 3.48 | 3.56 | 3.96 | 4.32 | 5.66 | 5.66 | 5.66 | 5.66 |  |  | increased time which need for developing of visible growth in the MPN assay and decreased the final values of MPN | growth of active cells of M. smegmatis (M. smegmatis): did not inhibit growth; concentrations active in suppressing resuscitation of M. smegmatis [2]: 0.1 to 1 µg/mL
6 | COc1ncnc(SC#N)c1[N+](=O)[O-] [I, 4-Methoxy-5-nitro-6-thiocyanatopyrimidine] |  |  |  |  |  |  |  |  |  |  |  |  | 54 to 56 °C | 25 µM | had no influence on the resuscitation kinetics | 
7 | CCOC(=O)c1ccc(SC#N)c([N+](=O)[O-])c1 [X, 3-nitro-4-thiocyanatobenzoic acid ethyl ester] |  | 10 µg/mL (≈ 39.6 µM) | 3.48 | 3.48 | 3.48 | 3.48 | 3.48 | 4.36 | 4.97 | 5.38 | 5.38 | 5.38 |  | 10.3 µM | increased time which need for developing of visible growth in the MPN assay and decreased the final values of MPN | 
8 | N#CSc1ccc(C(=O)O)cc1[N+](=O)[O-] [VIII, 3-Nitro-4-thiocyanatobenzoic acid] |  |  |  |  |  |  |  |  |  |  |  |  | 220 to 224 °C |  | had no influence on the resuscitation kinetics | effect on M. luteus growth (Micrococcus luteus): had no effect on M. luteus growth; effect on resuscitation of M. smegmatis "non-culturable" cells ([2]; inhibitors at 1 µg/ml, 2 weeks at 37°C): failure; interaction with the buried tryptophanes of ΔDUFRpfB (ΔDUFRpf B; fluorescence studies): doesn't interact with the buried tryptophanes
9 | CC(C)Nc1ncnc(SC#N)c1[N+](=O)[O-] [II, 4-Isopropylamino-5-nitro-6-thiocyanatopyrimidine] |  |  |  |  |  |  |  |  |  |  |  |  | 96 to 98 °C |  |  | effect on M. luteus growth (Micrococcus luteus): had no effect on M. luteus growth
